Assay results: PMC12234328, “A naphthalimide derivative exerts potent antiplatelet and antithrombotic activities without a bleeding tendency” (Frontiers in Pharmacology, 2025)

What was measured:
[1] = test system: collagen/epinephrine-induced pulmonary thrombosis; test: Collagen/epinephrine-induced pulmonary embolism in mice; type: in vivo; settings: 1.2 mg/kg i.v., relative to DMSO group
Protocol: Pulmonary embolism was induced using collagen and epinephrine in […] ICR mice according. Briefly, mice were intravenously injected with a bolus dose of DMSO (1.1 g/kg, solvent control), compound 6 (1.2 mg/kg), or aspirin (20 mg/kg, positive control). Subsequently, a mixture of collagen (0.6 mg/kg) and epinephrine (0.2 mg/kg) was administered via the tail vein. When respiration became severely weakened but the heart was still beating, 0.5 mL of Evans blue solution (1% in saline) was injected into the heart. The lungs were then excised and photographed. Mouse mortality was monitored for 24 h, and all surviving mice were euthanized immediately after the experiment. Each group consisted of six animals.
FIGURE 4 Effects of compound 6 on collagen/epinephrine-induced pulmonary thrombosis and FeCl3-induced thrombosis in mesenteric artery. Mice were intravenously administered with DMSO (solvent control), compound 6 (1.2 mg/kg), or aspirin (20 mg/kg, positive control) for 10 min (A) Mice were injected with collagen/epinephrine to induce pulmonary embolism, which was detected through staining with Evans blue (left panel). The survival rate was recorded for 24 h (right panel). […]
(A) Mice were injected with collagen/epinephrine to induce pulmonary embolism, which was detected through staining with Evans blue. (B) The survival rate was recorded for 24 h. […]

[2] = target: T1, recombinant human GPVI (Homo sapiens, UniProt Q9HCN6); test: Surface plasmon resonance binding assay (OpenSPR); settings: his-tagged recombinant GPVI on NTA chip, compound at 0.1 and 1 μM; read-out: KD (equilibrium dissociation constant)
T1 sequence (Q9HCN6 21-267 limits assumed): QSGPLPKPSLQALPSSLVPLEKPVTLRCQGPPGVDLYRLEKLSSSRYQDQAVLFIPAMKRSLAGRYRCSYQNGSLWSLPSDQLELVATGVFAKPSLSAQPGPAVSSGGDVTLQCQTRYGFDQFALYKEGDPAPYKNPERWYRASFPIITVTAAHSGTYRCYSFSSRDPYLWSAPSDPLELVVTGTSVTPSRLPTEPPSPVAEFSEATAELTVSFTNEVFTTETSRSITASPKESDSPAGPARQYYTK
Protocol: Surface plasmon resonance (SPR) analysis was performed using an OpenSPR instrument (Nicoya, Kitchener, Canada). A nitrilotriacetic acid (NTA) sensor chip was installed in the OpenSPR instrument. Running buffer (phosphate-buffered saline) was pumped at the maximum flow rate, and 80% isopropanol was injected to remove any bubbles. Subsequently, 200 μL of a 200 mM imidazole solution was injected to prime the sensor surface. After rinsing the chip with running buffer, 200 μL of a 40 mM NiCl2 solution was used to activate the NTA chip. After 5 min of interaction time, his-tagged recombinant GPVI proteins were bound to the NTA chip by perfusing the GPVI protein solution at a flow rate of 20 μL/min. Solutions of compound 5 or compound 6 (0.1 and 1 μM) were then injected. The equilibrium dissociation constant (KD) was determined using the OpenSPR system (Nicoya).
An SPR binding assay was performed. First, recombinant human GPVI was coated on the NTA sensor chip. Solutions of compound 5 and compound 6 (0.1 and 1 μM) were then perfused on the chip, and the KD was determined using the OpenSPR system (Nicoya Lifesciences).
FIGURE 7 Direct binding of compound 6 on GPVI. […] Equilibrium dissociation constant (KD) were determined using the OpenSPR system. […]

[3] = test system: tail bleeding (hemostasis); test: Tail-bleeding assay; type: in vivo; settings: 0.3, 0.6 or 1.2 mg/kg, mice, n = 6
Protocol: For the tail-bleeding assay, the mice were anesthetized with an oxygen–air mixture containing 3% isoflurane at a gas flow rate of 1.5–2 L/min. A bolus dose of compound 6 (0.3 mg/kg, 0.6 mg/kg, or 1.2 mg/kg), DMSO (solvent control; 1.1 g/kg), or aspirin (20 mg/kg; positive control) was intraperitoneally administered for 30 min. A 3-mm incision was then made at the tail tip to induce bleeding. The bleeding tail stump was immediately immersed in saline, and the bleeding time was recorded. […] A formula for dose translation based on the […] was used to calculate the dose for use in the mice ([Reagan-Shaw et al., 2008]).
FIGURE 3 Effects of compound 6 on thrombosis and hemostasis in mice. Mice were treated with compound 6 (0.3, 0.6, or 1.2 mg/kg), DMSO (solvent control), or aspirin (20 mg/kg; positive control) via intravenous route for 10 min. (A) The microthrombus formation (arrows) in mesenteric venules. Scale bar = 30 μm. […] Each point on the plot indicates a mouse (n = 6). Data (A,B) are presented as means ± SEM (n = 6). *p < 0.05 and ***p < 0.001 compared with the DMSO group.

CCCCN1C(=O)c2cccc3c(NCCNC(=O)C45CC6CC(CC(C6)C4)C5)ccc(c23)C1=O [compound 6]
Collagen/epinephrine-induced pulmonary thrombosis (Evans blue staining of lung) [1]: could prevent
Kd [2]: 160 nM
Duration of tail-bleeding [3]: did not significantly affect
